Values after ≈ are worked out from the molar mass of the structure shown.
Legend:
[1] = Water-solubility and wettability of Phthalazinol; type: physicochemical
[2] = Oral absorption and blood content of Phthalazinol (first pass effect); type: in vivo
alcohol dehydrogenase = experiment: Metabolism of Phthalazinol with alcohol dehydrogenase in the living body; type: in vivo; details: before it arrives at the blood circulation system

- wettability with water [1]: low wettability
- solubility ([1]; water at 25° C.): ~200 µg/mL (≈ 724 µM)
- absorption velocity ([2]; Phthalazinol subjected to the tests at present): low absorption velocity
- Fa ([2]; in vivo, po, administered orally): ~100%
- actual Phthalazinol content of the blood relative to the theoretical value ([2]; theoretical value assumes no metabolism and complete absorption): several tenths
- metabolism (4-hydroxymethyl converted into inactive 4-carboxyl group) (alcohol dehydrogenase): readily metabolized
Structure (SMILES): CCOC(=O)c1c(C)cc2c(CO)n[nH]c(=O)c2c1C [Phthalazinol, 6,8-Dimethyl-7-ethoxycarbonyl-4-hydroxymethyl-1-phthalazone]
